Test results as given in patent US5220018A, “Cholecystokinin antagonists” (Merck & Co., Inc., priority 1992, dated 1993).
Where two headings read alike, the source gives them in different places.

Key:
[1] = molecular target: T1, CCK Receptor (Pancreas) (Rattus norvegicus, UniProt P30551); assay: biochemical; format: binding, Male Sprague-Dawley rats
T1 construct: The whole pancreas was dissected free of fat tissue and was homogenized; from tissue; host or cells: rat whole pancreas, homogenate membranes
T1 sequence (P30551 1-444): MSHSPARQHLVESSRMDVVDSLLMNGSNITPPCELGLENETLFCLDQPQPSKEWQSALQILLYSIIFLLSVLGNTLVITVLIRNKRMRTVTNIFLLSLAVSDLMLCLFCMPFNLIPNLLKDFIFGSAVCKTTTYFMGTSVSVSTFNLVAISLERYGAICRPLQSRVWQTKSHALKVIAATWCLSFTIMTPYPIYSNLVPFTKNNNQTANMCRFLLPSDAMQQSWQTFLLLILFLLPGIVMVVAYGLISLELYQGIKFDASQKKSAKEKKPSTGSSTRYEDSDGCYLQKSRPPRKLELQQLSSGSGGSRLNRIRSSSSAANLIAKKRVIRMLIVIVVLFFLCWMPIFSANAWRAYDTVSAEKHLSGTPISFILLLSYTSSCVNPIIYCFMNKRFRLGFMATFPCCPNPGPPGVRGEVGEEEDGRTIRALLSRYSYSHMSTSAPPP
Description: 1. CCK Receptor Binding (Pancreas)
CCK-8 sulphated was radiolabelled with ^125 I-Bolton Hunter reagent (2000 Ci/mmole). Receptor binding was performed according to Chang and Lotti (Proc. Natl. Acad. Sci. 83, 4923-4926, 1986) with minor modifications.
Male Sprague-Dawley rats (150-200 g) were sacrificed by decapitation. The whole pancreas was dissected free of fat tissue and was homogenized in 25 volumes of ice-cold 10 mM Hepes buffer with 0.1% soya bean trypsin inhibitor (pH 7.4 at 25° C.) with a Kinematica Polytron. The homogenates were centrifuged at 47,800 g for 10 min. Pellets were resuspended in 10 volumes of binding assay buffer (20 mM Hepes, 1 mM EGTA, 5 mM MgCl2, 150 mM NaCl, bacitracin 0.25 mg/ml, soya bean trypsin inhibitor 0.1 mg/ml, and bovine serum albumin 2 mg/ml, pH 6.5 at 25° C.) using a teflon homogenizer, 15 strokes at 500 rpm. The homogenate was further diluted in binding assay buffer to give a final concentration of 0.5 mg original wet weight/1 ml buffer. […] All assays were run in duplicate. The reaction mixtures were incubated at 25° C. for 2 hours and the reaction terminated by rapid filtration (Brandell 24 well cell harvester) over Whatman GF/C filters, washing 3×4 mls with ice-cold 100 mM NaCl. The radioactivity on the filters was counted with a LKB gamma counter.
(§1) Drug displacement studies were performed with at least 10 concentrations of compounds of formula 1 and the IC50 values were determined by regression analysis.

[2] = molecular target: T2, CCK Receptor (Brain) (Cavia porcellus, UniProt H0VZC5); assay: CCK Receptor Binding (Brain), inhibition of 125I-CCK-8 binding; parameters: species or system Male Hartley guinea pigs
T2 construct: the cortex was removed and homogenized in 25 mL ice-cold 0.32M sucrose; from tissue; host or cells: guinea pig cerebral cortex, P2 membrane pellet
T2 sequence (H0VZC5 1-426): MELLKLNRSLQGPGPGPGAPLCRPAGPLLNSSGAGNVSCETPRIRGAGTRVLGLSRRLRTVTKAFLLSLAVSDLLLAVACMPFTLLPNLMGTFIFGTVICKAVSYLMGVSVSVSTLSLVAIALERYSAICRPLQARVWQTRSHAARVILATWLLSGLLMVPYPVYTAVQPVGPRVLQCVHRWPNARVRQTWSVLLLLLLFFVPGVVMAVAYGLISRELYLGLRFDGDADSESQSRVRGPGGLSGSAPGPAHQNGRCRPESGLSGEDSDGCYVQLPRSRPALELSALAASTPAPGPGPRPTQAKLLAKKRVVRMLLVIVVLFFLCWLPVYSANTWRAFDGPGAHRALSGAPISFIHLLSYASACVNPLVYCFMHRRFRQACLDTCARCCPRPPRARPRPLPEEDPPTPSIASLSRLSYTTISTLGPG
Description: 2. CCK Receptor Binding (Brain)
CCK-8 sulphated was radiolabelled and the binding was performed according to the description for the pancreas method with minor modifications.
Male Hartley guinea pigs (300-500 g) were sacrificed by decapitation and the cortex was removed and homogenized in 25 mL ice-cold 0.32M sucrose. The homogenates were centrifuged at 1000 g for 10 minutes and the resulting supernatant was recentrifuged at 20,000 g for 20 minutes. […] All assays were run in duplicate. The reaction mixtures were incubated at 25° C. for 2 hours and then the reaction was terminated on Whatman GF/C filters by rapid filtration (Brandell 24 well cell Harvester) with 3×5 ml washes of cold 100 mM NaCl. The radioactivity on the filters was then counted with a LKB gamma counter.
as §1

[3] = molecular target: T3, Gastrin Receptor (Cavia porcellus, UniProt H0VZC5); assay: Gastrin Receptor Binding in Guinea Pig Gastric Glands; parameters: species or system guinea pigs; conditions: guinea pig gastric glands; method: 125I-gastrin 0.1 nM, 25° C., 30 minutes; read-out: IC50, 125I-CCK Gastric Glands
T3 construct: from tissue; host or cells: guinea pig gastric mucosal glands (collagenase-dispersed)
T3 sequence (H0VZC5 1-426): T2 sequence (H0VZC5 1-426)
Description: Gastrin antagonist activity of compounds of Formula I is determined using the following assay.
A. Gastrin Receptor Binding in Guinea Pig Gastric Glands
Preparation of guinea pig gastric mucosal glands
Guinea pig gastric mucosal glands were prepared by the procedure of Chang et al., Science 230, 177-179 (1985) with slight modification. Gastric mucosa from guinea pigs (300-500 g body weight, male Hartley) were isolated by scraping with a glass slide after washing stomachs in ice-cold, aerated buffer consisting of the following: 130 mM NaCl, 12 mM NaHCO3, 3 mM NaH2 PO4, 3 mM Na2 HPO4, 3 mM K2 HPO4, 2 mM MgSO4, 1 mM CaCl2, 5 mM glucose and 4 mM L-glutamine, 50 mM HEPES, 0.25 mg/ml bacitracin, 0.10 mg/ml soya bean trypsin inhibitor, 0.1 mg/ml bovine serum albumin, at pH 6.5, and then incubated in a 37° C. shaking water bath for 40 minutes in buffer containing 1 mg/ml collagenase and bubbled with 95% O2 and 5% CO2. The tissues were passed twice through a 5 ml syringe to liberate the gastric glands, and then filtered through Nitex #202 gauge nylon mesh. The filtered glands were centrifuged at 272 g for 5 minutes and washed twice by resuspension in 25 ml buffer and centrifugation.
The washed guinea pig gastric glands prepared as above were resuspended in 25 ml of standard buffer. […] The radioactivity on the filters was measured using a LKB gamma counter.

[4] = rat pancreas membranes, 125I-CCK-8 50 pM, 25° C., 2 hours, read-out: IC50, 125I-CCK Pancreas
[5] = guinea pig cortex membranes, 125I-CCK-8 50 pM, 25° C., 2 hours, read-out: IC50, 125I-CCK Brain

Work on `CC(C)CN1C(=O)[C@H](NC(=O)Nc2cccc(-c3nnn[nH]3)c2)N=C(c2ccccc2)c2ccccc21` [Example 2, N-{1,3-Dihydro-1-[2-methyl]propyl-2-oxo-5-phenyl-1H-1,4-benzodiazepin-3-yl}-N'-{[3-(1H-tetrazol-5-yl)phenyl]urea}] yielded an IC50 [1, 4] of 1400 nM, an IC50 [2, 5] of 0.1 nM and an IC50 [3] of 0.24 nM.
`CN1C(=O)[C@H](NC(=O)Nc2cccc(NS(N)(=O)=O)c2)N=C(c2ccccc2)c2ccccc21` [Example 12, N-{1,3-Dihydro-1-methyl-2-oxo-5-phenyl-1H-1,4-benzodiazepin-3-yl}-N'-{[3-(aminosulfonamido)phenyl]urea}] was tested, and the IC50 [1, 4] was 530 nM and the IC50 [2, 5] was 32 nM.
Work on `CC(=O)c1cccc(NC(=O)N[C@@H]2N=C(c3ccccc3)c3ccccc3N(C)C2=O)c1` [Example 8, N-{1,3-Dihydro-1-methyl-2-oxo-5-phenyl-1H-1,4-benzodiazepin-3-yl}-N'-{[3-(acetyl)phenyl]urea}] yielded an IC50 [1, 4] of 1200 nM and an IC50 [2, 5] of 3.6 nM.
`CN1C(=O)[C@H](NC(=O)Nc2cccc(S(=O)(=O)NC(=O)C3CC3(C)C)c2)N=C(c2ccccc2)c2ccccc21` (stereo partly shown) [Example 29, N-{1,3-Dihydro-1-methyl-2-oxo-5-phenyl-1H-1,4-benzodiazepin-3-yl}-N'-{[3-(N-(2,2-dimethylcyclopropylcarbonyl)sulfonamido)phenyl]urea}] showed an IC50 [1, 4] of over 3000 nM and an IC50 [2, 5] of 11 nM.
Compound `CN1C(=O)[C@H](NC(=O)Nc2ccc(Cl)nc2)N=C(c2ccccc2)c2ccccc21` [Example 5, N-{1,3-Dihydro-1-methyl-2-oxo-5-phenyl-1H-1,4-benzodiazepin-3-yl}-N'-{[5-(2-chloro)pyridyl]urea}] has an IC50 [1, 4] of over 3000 nM and an IC50 [2] of 46 nM.
`COc1ccc(NC(=O)N[C@@H]2N=C(c3ccccc3)c3ccccc3N(C)C2=O)cn1` [Example 6, N-{1,3-Dihydro-1-methyl-2-oxo-5-phenyl-1H-1,4-benzodiazepin-3-yl}-N'-{[5-(2-methoxy)pyridyl]urea}] gave an IC50 [1, 4] of 2000 nM and an IC50 [2, 5] of 48 nM.
With `CN1C(=O)[C@H](NC(=O)Nc2cccc(S(=O)(=O)NC(=O)NC(C)(C)C)c2)N=C(c2ccccc2)c2ccccc21` [Example 30, N-{1,3-Dihydro-1-methyl-2-oxo-5-phenyl-1H-1,4-benzodiazepin-3-yl}-N'-{[3-(N-(t-butylaminocarbonyl)sulfonamido)phenyl]urea}] the IC50 [1, 4] was over 3000 nM and the IC50 [2, 5] was 14 nM.
`CCCN1C(=O)[C@H](NC(=O)Nc2cccc(-c3nnn[nH]3)c2)N=C(c2ccccc2)c2ccccc21` [Example 18, N-{1,3-Dihydro-1-n-propyl-2-oxo-5-phenyl-1H-1,4-benzodiazepin-3-yl}-N'-{[3-(1H-tetrazol-5-yl)phenyl]urea}] was tested, and the IC50 [1, 4] was 1100 nM and the IC50 [2, 5] was 0.067 nM.
`COP(=O)(Nc1cccc(NC(=O)N[C@@H]2N=C(c3ccccc3)c3ccccc3N(C)C2=O)c1)OC` [Example 11, N-{1,3-Dihydro-1-methyl-2-oxo-5-phenyl-1H-1,4-benzodiazepin-3-yl}-N'-{[3-(dimethylphosphoramido)phenyl]urea}] gave an IC50 [1, 4] of 300 nM and an IC50 [2, 5] of 100 nM.
With `CC(C)N1C(=O)C(NC(=O)Nc2cccc(-c3nnn[nH]3)c2)N=C(c2ccccc2)c2ccccc21` (stereo not shown) [Example 4, N-{1,3-Dihydro-1-[2-propyl]-2-oxo-5-phenyl-1H-1,4-benzodiazepin-3-yl}-N'-{[3-(1H-tetrazol-5-yl)phenyl]urea}] the IC50 [1, 4] was 200 nM and the IC50 [2, 5] was 4.1 nM.
`CC[C@H](C)CN1C(=O)[C@H](NC(=O)Nc2cccc(-c3nnn[nH]3)c2)N=C(c2ccccc2)c2ccccc21` [Example 19, N-{1,3-Dihydro-1-[2-(S)-methylbutyl]-2-oxo-5-phenyl-1H-1,4-benzodiazepin-3-yl}-N'-{[3-(1H-tetrazol-5-yl)phenyl]urea}] gave an IC50 [1, 4] of 500 nM and an IC50 [2, 5] of 0.25 nM.
In the case of `CC(C)CN1C(=O)C(NC(=O)Nc2cccc(-c3nnn[nH]3)c2)N=C(c2ccccc2F)c2ccccc21` (racemic) [Example 21, N-[3(R,S)-2,3-Dihydro-5-(2-fluorophenyl)-1-(2-methylpropyl)-2-oxo-1H-1,4-benzodiazepin-3-yl]-N'-{[3-(tetrazol-5-yl)phenyl]urea}], the IC50 [1, 4] is reported as 150 nM and the IC50 [2, 5] is reported as 1.4 nM.
`CN1C(=O)[C@H](NC(=O)Nc2cccc(C(=O)NS(C)(=O)=O)c2)N=C(c2ccccc2)c2ccccc21` [Example 23, N-{1,3-Dihydro-1-methyl-2-oxo-5-phenyl-1H-1,4-benzodiazepin-3-yl}-N'-{[3-(N-(methanesulfonyl)carboxamido)phenyl]urea}] gave an IC50 [1] of 1500 nM and an IC50 [2, 5] of 12 nM.
`CN1C(=O)[C@H](NC(=O)Nc2cccc(C3=NOS(=O)N3)c2)N=C(c2ccccc2)c2ccccc21` (stereo partly shown) [Example 36, N-{1,3-Dihydro-1-methyl-2-oxo-5-phenyl-1H-1,4-benzodiazepin-3-yl}-N'-{[3-(1,2,4-oxadiathiazol-5-one)phenyl]urea}] showed an IC50 [1, 4] of 1520 nM and an IC50 [2, 5] of 19.6 nM.
Work on `CC(=O)NC(=O)c1cccc(NC(=O)N[C@@H]2N=C(c3ccccc3)c3ccccc3N(C)C2=O)c1` [Example 22, N-{1,3-Dihydro-1-methyl-2-oxo-5-phenyl-1H-1,4-benzodiazepin-3-yl}-N'-{[3-(N-acetylcarboxamido)phenyl]urea}] yielded an IC50 [1, 4] of 3800 nM and an IC50 [2, 5] of 55 nM.
